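Cells were grown in 96-well plates and exposed to each compound for 48 hours at five concentrations; endpoints were interpolated linearly between bracketing concentrations, or set to the highest concentration if not reached. At the GI50, growth is halved. TGI is the concentration that stops growth completely.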
Experiments:
Assay in all cases: inhibition of tumour cell growth, NCI panel, 48 h
[1] = system: A498 renal
[2] = system: MDA-MB-231 breast
[3] = system: OVCAR-3 ovarian
[4] = system: SF-268 CNS
[5] = system: SK-MEL-5 melanoma
[6] = system: DU-145 prostate
[7] = system: NCI-H226 lung
[8] = system: MDA-MB-435

| Compound | TGI [1] | TGI [2] | TGI [3] | TGI [4] | TGI [5] | TGI [6] | TGI [7] | TGI [8] | GI50 [1] | GI50 [4] | GI50 [5] | GI50 [8] | GI50 [6] | GI50 [7] | GI50 [2] | GI50 [3] |
| --- | --- | --- | --- | --- | --- | --- | --- | --- | --- | --- | --- | --- | --- | --- | --- | --- |
| O=NN1CCCS1(=O)=O | > 100 µM | > 100 µM | > 100 µM | > 100 µM | > 100 µM | > 100 µM | > 100 µM | – | – | – | – | – | – | – | – | – |
| O=C1c2ccccc2C(=O)c2nn(N=P(CP(=Nn3nc4c(n3)C(=O)c3ccccc3C4=O)(c3ccccc3)c3ccccc3)(c3ccccc3)c3ccccc3)nc21 | > 100 µM | > 100 µM | > 100 µM | > 100 µM | > 100 µM | > 100 µM | – | > 100 µM | – | – | – | – | – | – | – | – |
| Nn1c(Sc2nc3ccccc3c(=O)n2N)nc2ccccc2c1=O | 36.5 µM | 24.4 µM | 40.3 µM | 22.3 µM | 11.5 µM | 56.8 µM | 5.5 µM | > 49.5 µM | – | – | – | – | – | – | – | – |
| O=c1oc2cccnc2n1CCCCN1CCN(c2ccccc2)CC1 | > 100 µM | > 100 µM | > 100 µM | > 100 µM | > 100 µM | > 100 µM | – | > 100 µM | – | – | – | – | – | – | – | – |
| COc1cc2c(cc1O)CCN(C)[C@H]2Cc1ccc(Oc2c(O)c(OC)cc3c2C[C@H]2c4c(c(OC)c(OC)c(OC)c4-3)CCN2C)cc1 | 12.7 µM | 9.47 µM | 10.6 µM | 11.5 µM | 7.65 µM | 11.5 µM | 13.6 µM | 8.7 µM | – | – | – | – | – | – | – | – |
| NC1c2c(Cl)sc(Cl)c2C(=O)C1O (stereo not drawn) | > 100 µM | > 100 µM | > 100 µM | > 100 µM | 86.6 µM | > 100 µM | > 100 µM | > 100 µM | – | – | – | – | – | – | – | – |
| COC(=O)/C=c1/c2ccccc2n2c1c1ccccc1[n+]2C | 14.6 µM | 26 µM | 21.9 µM | 22.8 µM | 8.12 µM | 36.3 µM | 21 µM | 18.8 µM | – | – | – | – | – | – | – | – |
| Cc1ccc(NC2=N/C(=C/c3ccco3)C(Cl)=N2)cc1 | > 100 µM | > 100 µM | > 100 µM | > 100 µM | > 100 µM | > 100 µM | > 100 µM | > 100 µM | – | – | – | – | – | – | – | – |
| NC(=S)N/N=C1\CCCC1C(O)(C(F)(F)Cl)C(F)(F)Cl (stereo not drawn) | > 10 µM | > 10 µM | > 10 µM | > 10 µM | 7.44 µM | > 10 µM | > 10 µM | > 10 µM | – | – | – | – | – | – | – | – |
| CCN(CC)C1Oc2cc3c(cc2C(c2cc(OC)c(OC)c(OC)c2)C1C)OCO3 (stereo not drawn) | 6.65 µM | 65.9 µM | 5.79 µM | > 58.2 µM | 6.68 µM | > 91.4 µM | 4.54 µM | 0.535 µM | – | – | – | – | – | – | – | – |
| O=c1[nH]c2cc([N+](=O)[O-])c(Nc3c4ccccc4nc4ccccc34)c([N+](=O)[O-])c2[nH]1 | 6.86 µM | 17.5 µM | 9.33 µM | 10.5 µM | 7.65 µM | 8.82 µM | 15 µM | 8.62 µM | – | – | – | – | – | – | – | – |
| COc1cc2oc(-c3ccc4c(c3)OCO4)c(OC)c(=O)c2c(O)c1OC | > 50 µM | > 50 µM | > 50 µM | > 50 µM | > 50 µM | > 50 µM | > 50 µM | > 50 µM | – | – | – | – | – | – | – | – |
| C=CC(OC(C)=O)c1ccc(OC(C)=O)cc1 (stereo not drawn) | 25.3 µM | 9.12 µM | 16.4 µM | 10.7 µM | 28.7 µM | 27.1 µM | 32.1 µM | 11.9 µM | – | – | – | – | – | – | – | – |
| Cn1c2ccc(C3=NCCN3)cc2c2cc(C3=NCCN3)ccc21 | > 100 µM | > 100 µM | > 100 µM | > 100 µM | > 100 µM | > 100 µM | > 100 µM | > 100 µM | – | – | – | – | – | – | – | – |
| COc1cc2oc(=O)cc(C)c2cc1OC | > 100 µM | > 100 µM | > 100 µM | > 100 µM | > 100 µM | > 100 µM | > 100 µM | > 100 µM | – | – | – | – | – | – | – | – |
| N#C/C(C(=O)Nc1ccccc1)=C(/N)N1CCCCC1 | – | – | > 100 µM | – | > 100 µM | > 100 µM | > 100 µM | > 100 µM | – | – | – | – | – | – | – | – |
| NNC(=O)Cn1ccnn1 | – | > 100 µM | – | > 100 µM | > 100 µM | > 100 µM | – | > 100 µM | – | – | – | – | – | – | – | – |
| CCOC(=O)CCC(NC(=O)OCc1ccccc1)C(=O)NC(CCC(=O)OCC)C(=O)NC(CCC(=O)OCC)C(=O)NNC(=O)OC(C)(C)C (stereo not drawn) | > 100 µM | > 100 µM | – | – | > 100 µM | – | > 100 µM | – | – | – | – | – | – | – | – | – |
| CC1CN=C(c2ccc(-c3nc(-c4ccc(C5=NCC(C)N5)cc4)nc(N(C)C)n3)cc2)N1 (stereo not drawn) | 6.7 µM | 3.05 µM | 4.74 µM | 6.53 µM | 14 µM | 5.59 µM | 5.35 µM | 3.09 µM | – | – | – | – | – | – | – | – |
| CC(C)(Cc1ccccc1)N1C(=O)N1C(C)(C)Cc1ccccc1 | > 100 µM | > 100 µM | > 100 µM | > 100 µM | 43.4 µM | > 100 µM | 46 µM | > 100 µM | – | – | – | – | – | – | – | – |

| Compound | TGI [1] | TGI [2] | TGI [3] | TGI [4] | TGI [5] | TGI [6] | TGI [7] | TGI [8] | GI50 [1] | GI50 [4] | GI50 [5] | GI50 [8] | GI50 [6] | GI50 [7] | GI50 [2] | GI50 [3] |
| --- | --- | --- | --- | --- | --- | --- | --- | --- | --- | --- | --- | --- | --- | --- | --- | --- |
| CC(C)(C)C(=O)N1CCN(C=O)C1=S | 80.8 µM | > 100 µM | > 100 µM | > 100 µM | – | > 100 µM | > 100 µM | > 100 µM | – | – | – | – | – | – | – | – |
| CCN(CCCl)c1cccc(NC(=O)c2ccc(C(=O)Nc3cccc(CN(C)C)c3)cc2)c1 | 0.502 µM | – | – | 4.87 µM | – | 12.2 µM | – | 0.114 µM | – | – | – | – | – | – | – | – |
| C[PH+](c1nc2ccccc2nc1[PH+](C)C(C)(C)C)C(C)(C)C.C[PH+](c1nc2ccccc2nc1[PH+](C)C(C)(C)C)C(C)(C)C.[Au+].[Cl-] (stereo not drawn) | 0.445 µM | – | – | 1.35 µM | 0.105 µM | 0.374 µM | 2.44 µM | 0.158 µM | 0.0263 µM | 0.0384 µM | 0.0329 µM | 0.0345 µM | 0.0401 µM | 0.0539 µM | – | – |
| CCOC(=O)c1c(N)sc2c1C(C(=O)OCC)CCC2 (stereo not drawn) | > 100 µM | > 100 µM | – | – | > 100 µM | – | > 100 µM | – | – | – | – | – | – | – | – | – |
| Cc1cn(CCOCCOC(=O)NC(CCCNC(N)=O)C(=O)O)c(=O)[nH]c1=O (stereo not drawn) | – | > 100 µM | > 100 µM | > 100 µM | – | > 100 µM | > 100 µM | > 100 µM | – | – | – | – | – | – | – | – |
| Cn1ccc2c(c1=O)C(=O)OC2(C)C | > 100 µM | > 100 µM | > 100 µM | > 100 µM | > 100 µM | > 100 µM | > 100 µM | – | – | – | – | – | – | – | – | – |
| CC(C)(CN1CCCCC1)C(/C=C/c1ccccc1)=N\NC(=O)N/N=C(/C=C/c1ccccc1)C(C)(C)CN1CCCCC1 | 2.95 µM | 2.81 µM | 6.82 µM | 8.94 µM | 3.1 µM | – | 5.27 µM | 2.86 µM | – | – | – | – | – | – | – | – |
| COc1cccc(NC(=O)CC(=O)N2N=C(C)C(N=Nc3ccc(C(=O)O)cc3)C2=O)c1 (stereo not drawn) | – | > 100 µM | > 100 µM | > 100 µM | > 100 µM | > 100 µM | – | > 100 µM | – | – | – | – | – | – | – | – |
| CC1(C)C=[N+]([O-])C(C)(C)N1O | – | > 10 µM | > 10 µM | > 10 µM | – | > 10 µM | > 10 µM | > 10 µM | – | – | – | – | – | – | – | – |
| Cc1nc2cccc(F)c2c(=O)n1-c1nnc(C(F)(F)F)s1 | – | > 10 µM | > 10 µM | > 10 µM | > 10 µM | > 10 µM | > 10 µM | > 10 µM | – | – | – | – | – | – | – | – |
| CC1CN=C(c2ccc(CN3CCC(C4CCN(Cc5ccc(C6=NCC(C)N6)cc5)CC4)CC3)cc2)N1 (stereo not drawn) | 80.6 µM | 36.3 µM | 44.5 µM | 53.7 µM | > 100 µM | 30.6 µM | – | 51.6 µM | – | – | – | – | – | – | – | – |
| O=c1c2cc(Br)ccc2ncn1COCc1ccccc1 | > 100 µM | – | > 100 µM | – | > 100 µM | > 100 µM | > 1 µM | > 100 µM | – | – | – | – | – | – | – | – |
| O=C(NCCCCCCO)c1cccc2cc3ccccc3nc12 | – | 40 µM | 36.5 µM | – | 32.9 µM | 32 µM | 35.3 µM | 47.3 µM | – | – | – | – | – | – | – | – |
| COc1cc2c(cc1OC)C(=O)/C(=C/c1ccc(O)cc1)CC2 | – | > 10 µM | > 10 µM | > 10 µM | > 10 µM | > 10 µM | > 10 µM | > 10 µM | – | – | – | – | – | – | – | – |
| COc1ccccc1NC(=S)N/N=C/c1ccccn1 | 5.04 µM | > 60.1 µM | – | 3.59 µM | 2.71 µM | 19 µM | > 35.9 µM | > 46.4 µM | – | – | – | – | – | – | – | – |
| O=P(O)(O)C=C=C1CCCCC1 | > 100 µM | – | > 100 µM | > 100 µM | > 100 µM | > 100 µM | > 100 µM | > 100 µM | – | – | – | – | – | – | – | – |
| C=C(C)[C@@H]1CC[C@]2(CO)CC[C@]3(C)[C@H](CC[C@@H]4[C@@](C)(CCCN)[C@H](C(=C)C)CC[C@]43C)[C@@H]12 | 3.15 µM | 3.19 µM | 2.96 µM | 3.06 µM | – | 3.06 µM | – | 3.16 µM | 1.74 µM | 1.53 µM | – | 1.72 µM | 1.68 µM | – | 1.75 µM | 1.59 µM |
| COc1cc2c(c(OC)c1)C(=O)O[C@H](C)CCCC/C=C/C2 | > 100 µM | > 31.9 µM | 28 µM | – | 11.2 µM | 27.1 µM | > 95.8 µM | 12.9 µM | – | – | – | – | – | – | – | – |
| COc1cccc(C23CCCC(C2)N(C)CC3OC(=O)c2ccccc2)c1OC (stereo not drawn) | > 100 µM | – | > 100 µM | > 100 µM | 27.4 µM | > 100 µM | – | 38.4 µM | – | – | – | – | – | – | – | – |
